# Reference: patent publication EP0412762A2, “Peptide inhibitors of human papilloma virus protein binding to retinoblastoma gene proteins” (priority 1989, dated 1991)
# Non-standard residues stand in square brackets, D forms with d. Residues, ends and D or L forms follow the SMILES beside them. No end group written: not given here. *: point of attachment. Abu = CC[C@H](N)C(=O)O; Acm = CC(=O)NC*
# Key:
# RBG Protein/E7 [1] = biological target: T1, RBG Protein/E7 (Homo sapiens, UniProt P06400); experiment: In vitro solution assay for E7/RBG protein complex formation (immunoprecipitation, T24 cell lysates); type: binding; set-up: Cell lysates used as a source of RBG protein were prepared from human T24 bladder carcinoma cells; endogenous in cells; host or cells: human T24 bladder carcinoma cell lysate
# T1 sequence (P06400 1-928): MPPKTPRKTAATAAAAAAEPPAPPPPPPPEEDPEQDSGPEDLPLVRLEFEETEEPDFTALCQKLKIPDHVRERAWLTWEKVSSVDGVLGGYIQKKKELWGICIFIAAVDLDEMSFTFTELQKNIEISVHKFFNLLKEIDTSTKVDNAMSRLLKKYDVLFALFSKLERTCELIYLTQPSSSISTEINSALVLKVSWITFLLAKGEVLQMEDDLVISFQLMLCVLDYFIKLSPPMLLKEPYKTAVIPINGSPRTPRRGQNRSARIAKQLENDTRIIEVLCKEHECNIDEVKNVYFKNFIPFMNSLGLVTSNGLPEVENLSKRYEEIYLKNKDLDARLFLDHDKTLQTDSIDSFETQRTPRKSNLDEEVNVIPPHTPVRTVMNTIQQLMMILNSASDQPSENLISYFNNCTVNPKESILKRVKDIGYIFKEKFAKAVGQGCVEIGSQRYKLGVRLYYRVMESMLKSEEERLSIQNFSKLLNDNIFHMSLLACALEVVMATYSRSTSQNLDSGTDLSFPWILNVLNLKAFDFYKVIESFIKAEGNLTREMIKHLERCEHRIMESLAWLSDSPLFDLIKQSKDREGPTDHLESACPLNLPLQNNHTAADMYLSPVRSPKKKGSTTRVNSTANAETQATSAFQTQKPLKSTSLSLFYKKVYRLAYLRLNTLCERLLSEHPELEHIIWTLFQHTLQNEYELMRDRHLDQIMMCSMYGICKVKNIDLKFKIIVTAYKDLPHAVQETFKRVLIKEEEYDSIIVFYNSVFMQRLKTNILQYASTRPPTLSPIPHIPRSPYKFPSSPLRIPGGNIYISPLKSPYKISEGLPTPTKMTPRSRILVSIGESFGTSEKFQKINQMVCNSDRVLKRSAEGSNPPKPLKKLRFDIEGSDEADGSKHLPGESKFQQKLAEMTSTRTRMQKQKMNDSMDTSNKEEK
# Description: (§1) An in vitro solution assay used for the detection of complex formation between E7 protein and p105-RB has been described by Dyson, et al (30). Cell lysates used as a source of RBG protein were prepared from human T24 bladder carcinoma cells as described (30). C36 and the control antibody Pb416 are monoclonal antibodies directed against RGB protein and SV40 large T protein, respectively. These antibodies were a generous gift from E. Harlow (Cold Spring Harbor Laboratories, Cold Spring Harbor, NY). Immunoprecipitates of E7/RBG protein binding reactions containing serially diluted peptide antagonists were dissolved in 35 µl gel loading buffer (30). Five µl was counted directly in Right Safe (Beckman, Palo Alto, CA.) scintillation cocktail and 25 µl was subjected to sodium dodecyl sulphate poly-acrylamide gel electrophoresis. Gels were dried and exposed to Kodak X-AR film at -70 °C overnight. In order to more rapidly assay large numbers of samples and more easily quantitate the binding results, we developed a plate binding assay for the detection of E7/RBG protein association. Purified recombinant E7 was resuspended in 0.1 M sodium carbonate, pH 9.5, at 1 ng/µl. Fifty microliters of this solution was placed into each well of a polyvinyl chloride microtiter plate (COSTAR 2596, Cambridge, MA.). The plate was gently agitated for 18 hours at 4 °C. The E7 solution was aspirated off and 100 µl of plate blocking buffer (PBB) [50mM Hepes 7.0, 250 mM sodium chloride, 0.1% NP4O, 0.5% (w/v) pigskin gelatin, and 0.02% sodium azide] was added per well. The buffer was removed and the plate was washed three times in the above buffer without the gelatin (PB). Five femtomoles of ³⁵S-methionine (Amersham 1100 Ci/mmole, Arlington Heights, IL.) labeled RBG protein prepared in a rabbit reticulocyte lysate was diluted in PB buffer containing various peptide antagonists to a final volume of 50 µl and added to the E7 treated plate. The plate was again incubated at 4 °C with agitation for 1 hour after which the solution was aspirated and each well washed five times with PB. The top of the plate was removed using a hot wire cutting apparatus (D. Lee, Sunnyvale, CA). Each well was placed in 3 ml of Ready Safe scintillation cocktail (Beckman, Palo Alto, CA.) and counted for 1 minute.
# (§2) IC₅₀ values represent the average of at least two experiments in which each concentration of inhibitor was tested in triplicate. The variation between experiments was less than 10%. The 50% inhibition concentrations are micromolar. ND = not determined.
# RBG Protein/E7 [2] = biological target: T1, RBG Protein/E7; experiment: Plate binding assay for E7/RBG protein association (E7-coated plate, 35S-labelled RBG protein); set-up: made in house; host or cells: rabbit reticulocyte lysate (RB, in vitro translation)
# Description: as §1, §2
# [3] = biological target: T2, binding of the HPV-16 E7 protein to the RBG protein (Homo sapiens, UniProt P06400); experiment: Binding inhibition assay in vitro: immune precipitation of RBG protein from Hela lysate with radiolabelled HPV-16 E7 (Example 2); conditions: for inhibition of the binding of the HPV E7 protein to the RBG protein (in words): summary statement
# T2 construct: Whole cell lysates of Hela cells were used as a source of human RBG protein; endogenous in cells; host or cells: HeLa whole cell lysate (RB); rabbit reticulocyte lysate, T7 promoter clone (E7)
# T2 sequence (P06400 1-928): T1 sequence (P06400 1-928)
# Description: Peptide A, Peptide B, and Acetyl-GRP 20-27 were assayed for their abilities to inhibit the binding of the HPV-16 E7 protein to the RBG protein. Binding inhibition assays were carried out in vitro using a modification of the procedure described by N. Dyson et al., Science 243: 934-936 1989. Whole cell lysates of Hela cells were used as a source of human RBG protein. Rabbit reticulocyte cell free lysates that permit transcription and translation of exogenously added DNAs served as a source of HPV-16 E7 protein. The HPV-16 E7 gene was added to the rabbit reticulocyte lysate as a recombinant DNA clone under the control of a T7 promoter and incubated for 60 minutes at 30°C in the presence of radiolabeled methionine to allow transcription of the HPV-16 E7 gene and translation into E7 protein that contained radiolabeled methionine. The Hela cell and rabbit reticulocyte lysates were then mixed and incubated at 4°C for 90 minutes. After further manipulations a murine antibody against the RBG protein was added and incubated at 4°C for 60 minutes. Next, a rabbit anti-mouse IgG antibody and protein A sepharose was added to the reaction mixture in order to immune precipitate the RBG protein. At the same time, the E7 protein that was bound to the RBG protein was also precipitated. After an additional 60 minute incubation at 4°C the precipitated proteins were isolated by centrifugation and examined by polyacrylamide gel electrophoresis. Following electrophoresis, the polyacrylamide gel was dried and exposed to x-ray film. […] This biochemical protocol yields a quantitative estimate of the binding of HPV-16 E7 protein to the RBG protein in vitro.
# These biochemical reactions can be run with or without added synthetic peptides to evaluate the effects of various concentrations of peptides on the binding of the HPV E7 protein to the RBG protein. In our studies, the addition of peptide A to these reaction mixtures at concentrations of 40 uM, 20 uM, or 2 uM caused a reduction in HPV-16 E7 protein binding to the RBG protein of 90%, 90% and 60% respectively. Addition of Peptide B or Acetyl-GRP 20-27 to the reaction mixture at concentrations up to 60 uM had no effect on HPV-16 E7 protein binding to the RBG protein.
# [4] = average of at least two experiments, triplicate, read-out: SOLUTION ASSAY RBG Protein/E7 IC₅₀
# [5] = average of at least two experiments, triplicate, read-out: PLATE ASSAY RBG Protein/E7 IC₅₀
Molecule,IC50 (RBG Protein/E7 [1]; [4]),IC50 (RBG Protein/E7 [2]; [5]),IC50 (RBG Protein/E7 [2]),other results
"TDLYCYEQL-NH2 [Peptide 4, E7-(20-28)-AMIDE]",5 µM,0.7 µM,–,–
"TDLYCYEQLN-NH2 [Peptide 9, E7-(20-29)-AMIDE]",–,–,0.09 µM,IC50 (RBG Protein/E7 [1]): 1 µM
"CC(=O)NCSC[C@H](NC(=O)[C@H](Cc1ccc(O)cc1)NC(=O)[C@H](CC(C)C)NC(=O)[C@H](CC(=O)O)NC(=O)[C@@H](N)[C@@H](C)O)C(=O)N[C@@H](Cc1ccc(O)cc1)C(=O)N[C@@H](CCC(=O)O)C(=O)N[C@@H](CCC(N)=O)C(=O)N[C@@H](CC(C)C)C(=O)N[C@@H](CC(N)=O)C(=O)N[C@@H](CC(=O)O)C(=O)N[C@@H](CO)C(=O)N[C@@H](CO)C(N)=O [Peptide 18, [ACM²⁴]-E7-(20-32)-AMIDE] (H-TDLYC(Acm)YEQLNDSS-NH2)",–,–,–,IC50 (RBG Protein/E7 [1]): > 100 µM
"TDLYCYEQLN [Peptide 11, E7-(20-29)-ACID]",–,–,0.08 µM,–
"DLYCYEQLNDSS-NH2 [Peptide 10, E7-(21-32)-AMIDE]",–,–,11.4 µM,IC50 (RBG Protein/E7 [1]): 20 µM
"Ac-LYCYEQLNDSS-NH2 [Peptide C, Ac-Leu-Tyr-Cys-Tyr-Glu-Gln-Leu-Asn-Asp-Ser-Ser-NH₂]",–,–,–,concentration at which HPV-16 E7 protein binding to the RBG protein was inhibited ([3]; concentrations as low as): ≤ 1 µM
"E7-(18-29)-AMIDE (ETTDLYCYEQLN-NH2; UniProt P03129 18-29, looked up, fragment) [Peptide 8]",0.4 µM,0.06 µM,–,–
"TDLYSYEQLNDSS-NH2 [Peptide 16, [Ser²⁴]-E7-(20-32)-AMIDE]",40 µM,–,–,–
"Ac-LYCYEQLNDSS-NH2 [Peptide 15, N-Ac-E7-(22-32)-AMIDE]",10 µM,25 µM,–,–
"TDLYCYE-NH2 [Peptide 6, E7-(20-26)-AMIDE]",100 µM,3.3 µM,–,–
"Ac-TDLYCYEQLN-NH2 [Peptide 13, N-Ac-E7-(20-29)-AMIDE]",–,–,0.08 µM,–
"TDLFCYEQLN-NH2 [Peptide 19, [Phe²³]-E7-(20-29)-AMIDE]",1 µM,0.6 µM,–,–
"TDLYCYEQLNDSS-NH2 [Peptide A, Thr-Asp-Leu-Tyr-Cys-Tyr-Glu-Gln-Leu-Asn-Asp-Ser-Ser-NH₂]",–,–,–,reduction in HPV-16 E7 protein binding to the RBG protein ([3]; peptide at 2 uM): 60%; reduction in HPV-16 E7 protein binding to the RBG protein ([3]; peptide at 20 uM): 90%; reduction in HPV-16 E7 protein binding to the RBG protein ([3]; peptide at 40 uM): 90%; inhibition of the binding of the HPV E7 protein to the RBG protein (in words) [3]: inhibited
"CC[C@H](NC(=O)[C@H](Cc1ccc(O)cc1)NC(=O)[C@H](CC(C)C)NC(=O)[C@H](CC(=O)O)NC(=O)[C@@H](N)[C@@H](C)O)C(=O)N[C@@H](Cc1ccc(O)cc1)C(=O)N[C@@H](CCC(=O)O)C(=O)N[C@@H](CCC(N)=O)C(=O)N[C@@H](CC(C)C)C(=O)N[C@@H](CC(N)=O)C(=O)N[C@@H](CC(=O)O)C(=O)N[C@@H](CO)C(=O)N[C@@H](CO)C(N)=O [Peptide 17, [ABU²⁴]-E7-(20-32)-AMIDE] (H-TDLY[Abu]YEQLNDSS-NH2)",20 µM,–,–,–
"TDLYCYEQLND-NH2 [Peptide 2, E7-(20-30)-AMIDE]",–,–,0.08 µM,IC50 (RBG Protein/E7 [1]): 1 µM
"TDLYCYENLND-NH2 [Peptide 23, [Asn²⁷]-E7-(20-30)-AMIDE]",1 µM,–,–,–
"TDLYCYEQ-NH2 [Peptide 5, [Gln27]]-E7-(20-27)-AMIDE]",50 µM,9.1 µM,–,–
"CSCC[C@H](NC(=O)[C@H](CC(C)C)NC(=O)[C@H](Cc1c[nH]cn1)NC(=O)CNC(=O)[C@@H](NC(=O)[C@H](C)NC(=O)[C@H](Cc1c[nH]c2ccccc12)NC(=O)[C@H](Cc1c[nH]cn1)NC(C)=O)C(C)C)C(N)=O [Acetyl-GRP 20-27, reference compound]",–,–,–,effect on HPV-16 E7 protein binding to the RBG protein ([3]; concentrations up to 60 uM): no effect; inhibition of the binding of the HPV E7 protein to the RBG protein (in words) [3]: can not inhibit
"TDLYCFEQLN-NH2 [Peptide 20, [Phe²⁵]-E7-(20-29)-AMIDE]",15 µM,> 50 µM,–,–
"E7-(14-29)-AMIDE (DLQPETTDLYCYEQLN-NH2; UniProt P03129 14-29, looked up, fragment) [Peptide 7]",–,0.08 µM,–,–
"TDLYCYEQLNDSS-NH2 [Peptide 1, E7-(20-32)-AMIDE]",–,–,0.05 µM,IC50 (RBG Protein/E7 [1]): 1 µM
"TNLYCYEQL-NH2 [Peptide 22, [Asn²¹]-E7-(20-28)-AMIDE]",> 100 µM,–,–,–
"TDLYCYQQL-NH2 [Peptide 21, [Gln²⁶]-E7-(20-28)-AMIDE]",> 100 µM,–,–,–
"Ac-TDLYCYEQLN [Peptide 12, N-Ac-E7-(20-29)-ACID]",–,–,0.06 µM,–
"Ac-DLYCYEQLN-NH2 [Peptide 14, N-Ac-E7-(21-29)-AMIDE]",–,–,0.04 µM,IC50 (RBG Protein/E7 [1]): 1 µM
